The results in this text go back to patent US20230031406A1, “COMPOUNDS AND COMPOSITIONS FOR TREATING CONDITIONS ASSOCIATED WITH NLRP ACTIVITY” (Novartis AG, priority 2018, published 2023).

One may read the IC50 as the midpoint of a concentration-inhibition curve.

Like-named read-outs stand apart in the source and are kept apart here.

The assay deals with PMA-differentiated THP-1 cells. In words: IL-1β production in PMA-differentiated THP-1 cells stimulated with gramicidin (hTHP-1 assay containing 2% fetal bovine serum; Procedures 1 and 2). Format: cell-based, human. The following applies: 2% fetal bovine serum. The method, then:
The following protocol is suitable for testing the activity of the compounds disclosed herein. Procedure 1: IL-1β Production in PMA-Differentiated THP-1 Cells Stimulated with Gramicidin.
THP-1 cells were purchased from the American Type Culture Collection and sub-cultured according to instructions from the supplier. Cells were cultured in complete RPMI 1640 (containing 10% heat inactivated FBS, penicillin (100 units/ml) and streptomycin (100 μg/ml)), and maintained in log phase prior to experimental setup. Prior to the experiment, compounds were dissolved in dimethyl sulfoxide (DMSO) to generate a 30 mM stock. The compound stock was first pre-diluted in DMSO to 3, 0.34, 0.042 and 0.0083 mM intermediate concentrations and subsequently spotted using Echo550 liquid handler into an empty 384-well assay plate to achieve desired final concentration (e.g. 100, 33, 11, 3.7, 1.2, 0.41, 0.14, 0.046, 0.015, 0.0051, 0.0017 μM). DMSO was backfilled in the plate to achieve a final DMSO assay concentration of 0.37%. The plate was then sealed and stored at room temperature until required.
THP-1 cells were treated with PMA (Phorbol 12-myristate 13-acetate) (20 ng/ml) for 16-18 hours. On the day of the experiment the media was removed and adherent cells were detached with trypsin for 5 minutes. Cells were then harvested, washed with complete RPMI 1640, spun down, and resuspended in RPMI 1640 (containing 2% heat inactivated FBS, penicillin (100 units/ml) and streptomycin (100 μg/ml). The cells were plated in the 384-well assay plate containing the spotted compounds at a density of 50,000 cells/well (final assay volume 50 μl). Cells were incubated with compounds for 1 hour and then stimulated with gramicidin (5 μM) (Enzo) for 2 hours. Plates were then centrifuged at 340 g for 5 min. Cell free supernatant (40 μL) was collected using a 96—CHannel PlateMaster (Gilson) and the production of IL-1β was evaluated by HTRF (cisbio). The plates were incubated for 18 h at 4° C. and read using the preset HTRF program (donor emission at 620 nm, acceptor emission at 668 nm) of the SpectraMax i3x spectrophotometer (Molecular Devices, software SoftMax 6). A vehicle only control and a dose titration of CRID3 (100-0.0017 μM) were run concurrently with each experiment.
Procedure 2: IL-1β Production in PMA-Differentiated THP-1 Cells Stimulated with Gramicidin.
THP-1 cells were purchased from the American Type Culture Collection and sub-cultured according to instructions from the supplier. Prior to experiments, cells were cultured in complete RPMI 1640 (containing 10% heat inactivated FBS, penicillin (100 units/ml) and streptomycin (100 μg/ml)), and maintained in log phase prior to experimental setup. Prior to the experiment THP-1 were treated with PMA (Phorbol 12-myristate 13-acetate) (20 ng/ml) for 16-18 hours. Compounds were dissolved in dimethyl sulfoxide (DMSO) to generate a 30mM stock. On the day of the experiment the media was removed and adherent cells were detached with trypsin for 5 minutes. Cells were then harvested, washed with complete RPMI 1640, spun down, resuspended in RPMI 1640 (containing 2% heat inactivated FBS, penicillin (100 units/ml) and streptomycin (100 μg/ml). The cells were plated in a 384-well plate at a density of 50,000 cells/well (final assay volume […]). Compounds were first dissolved in assay medium to obtain a 5× top concentration of 500 μM. 10 step dilutions (1:3) were then undertaken in assay medium containing 1.67% DMSO. 5× compound solutions were added to the culture medium to achieve desired final concentration (e.g. 100, 33, 11, 3.7, 1.2, 0.41, 0.14, 0.046, 0.015, 0.0051, 0.0017 μM). Final DMSO concentration was at 0.37%. Cells were incubated with compounds for 1 hour and then stimulated with gramicidin (5 μM) (Enzo) for 2 hours. Plates were then centrifuged at 340 g for 5 min. Cell free supernatant (40 μL) was collected using a 96—CHannel PlateMaster (Gilson) and the production of IL-1β was evaluated by HTRF (cisbio). […]

[1] abbreviates: Table B2, class symbols, read-out: hTHP-1 IC50.
[2] abbreviates: Homo sapiens, THP-1, Table B2, class symbols, read-out: hTHP-1 IC50.
[3] abbreviates: Table B1, class symbols, read-out: Average IC50 of compounds in hTHP-1 assay: hTHP-1 IC50.
Setting [4] is: Homo sapiens, THP-1, Table B1, class symbols, read-out: Average IC50 of compounds in hTHP-1 assay: hTHP-1 IC50.
[5] abbreviates: Homo sapiens, THP-1, Table B2, numeric bounds, read-out: hTHP-1 IC50.

Turning to `CCc1c(C2CC2)nc2c(c1NC(=O)N=S(N)(=O)c1cc(C(C)(C)O)cs1)CCC2` (single isomer, unassigned) [Compound 181b, (R) or (S)-N′((2-cyclopropyl-3-ethyl-6,7-dihydro-5H-cyclopenta[b]pyridin-4-yl)carbamoyl)-4-(2-hydroxypropan-2-yl)thiophene-2-sulfonimidamide], the IC50 under setting [1] lay within 40 to 200 nM. For `CC(C)(O)c1csc(S(N)(=O)=NC(=O)Nc2cc(CC(F)(F)F)nc3c2CCC3)c1` (single isomer, unassigned) [Compound 607b, (R) or (S)-4-(2-Hydroxypropan-2-yl)-N′-((2-(2,2,2-trifluoroethyl)-6,7-dihydro-5H-cyclopenta[b]pyridin-4-yl)carbamoyl) thiophene-2-sulfonimidamide], under setting [2], the IC50 lay within 1000 to 5000 nM. On to `CC(C)(O)c1ncc(S(N)(=O)=NC(=O)Nc2c3c(nc4c2CCC4(C)C)CCC3)s1` (single isomer, unassigned) [Compound 153a, (S) or (R)-N′-((3,3-dimethyl-1,2,3,5,6,7-hexahydro-dicyclopenta[b,e]pyridin-8-yl)carbamoyl)-2-(2-hydroxypropan-2-yl)thiazole-5-sulfonimidamide], for which the IC50 under setting [3] is 5000 to 30000 nM. With `Cc1nc2c(c(NC(=O)N=S(N)(=O)c3cnc(C(C)(C)O)s3)c1C(C)C)CCC2` (stereo not shown) [Compound 116, 2-(2-hydroxypropan-2-yl)-N′-((3-isopropyl-2-methyl-6,7-dihydro-5H-cyclopenta[b]pyridin-4-yl)carbamoyl)thiazole-5-sulfonimidamide], under setting [4], the IC50 is 5000 to 30000 nM. Consider `CC1CCc2c1nc1c(c2NC(=O)N=S(N)(=O)c2sc(C(C)(C)O)cc2F)CCC1` (single isomer, unassigned) [Compound 103aa, (S,R) or (S,S)-3-fluoro-5-(2-hydroxypropan-2-yl)-N′-((3-methyl-1,2,3,5,6,7-hexahydrodicyclo-penta[b,e]pyridin-8-yl)carbamoyl)thiophene-2-sulfonimidamide], for which the IC50 under setting [3] lay in the range of 1000 to 5000 nM. With `CCc1c(CC(F)(F)F)nc2c(c1NC(=O)N=S(N)(=O)c1sc(C(C)(C)O)cc1F)CCC2` (single isomer, unassigned) [Example 639, (R) or (S)-N′-((3-ethyl-2-(2,2,2-trifluoroethyl)-6,7-dihydro-5H-cyclopenta[b]pyridin-4-yl)carbamoyl)-3-fluoro-5-(2-hydroxypropan-2-yl) thiophene-2-sulfonimidamide], the IC50 (Table B3, hTHP-1 assay, class symbols, read-out: IC50) was in the range of 200 to 1000 nM. In the case of `CC(C)(O)c1nc(CCO)c(S(N)(=O)=NC(=O)Nc2c3c(nc4c2CCC4)CCC3)s1` (stereo not shown) [Compound 118, N-((1,2,3,5,6,7-hexahydrodicyclopenta[b,e]pyridin-8-yl)carbamoyl)-4-(2-hydroxyethyl)-2-(2-hydroxypropan-2-yl)thiazole-5-sulfonimidamide], the IC50 under setting [4] was in the range of 1000 to 5000 nM. Turning to `Cc1c(C(F)(F)F)nc2c(c1NC(=O)N=S(N)(=O)c1ccn(C)n1)CCC2` (single isomer, unassigned) [Example 694, (S) or (R)-1-Methyl-N′-((3-methyl-2-(trifluoromethyl)-6,7-dihydro-5H-cyclopenta[b]pyridin-4-yl)carbamoyl)-1H-pyrazole-3-sulfonimidamide], the IC50 (Homo sapiens, THP-1, Table B3, hTHP-1 assay, numeric values, read-out: IC50) was over 30000 nM.

On to `CC(C)(O)c1ncc(S(N)(=O)=NC(=O)Nc2cc(-c3ccccc3)nc3c2CCC3)s1` (stereo not shown) [Compound 142, 2-(2-hydroxypropan-2-yl)-N′-((2-phenyl-6,7-dihydro-5H-cyclopenta[b]pyridin-4-yl)carbamoyl)thiazole-5-sulfonimidamide], for which, for the setting “Homo sapiens, THP-1, Table B1, numeric bounds, read-out: Average IC50 of compounds in hTHP-1 assay: hTHP-1 IC50”, the IC50 was over 30000 nM.

Turning to `Cc1c(C2CCC2)nc2c(c1NC(=O)N=S(N)(=O)c1cc(C(C)(C)O)cs1)CCC2` (single isomer, unassigned) [Compound 658b, (R) or (S)-N′-((2-cyclobutyl-3-methyl-6,7-dihydro-5H-cyclopenta[b]pyridin-4-yl)carbamoyl)-4-(2-hydroxypropan-2-yl)thiophene-2-sulfonimidamide], the IC50 under setting [2] fell in the range of 1000 to 5000 nM. For `CNCc1nc(C(C)(C)O)sc1S(N)(=O)=NC(=O)Nc1c2c(nc3c1CCC3(C)C)CCC2` (stereo not shown) [Compound 665, N-((3,3-dimethyl-1,2,3,5,6,7-hexahydrodicyclopenta[b,e]pyridin-8-yl)carbamoyl)-2-(2-hydroxypropan-2-yl)-4-((methylamino)methyl)thiazole-5-sulfonimidamide], under setting [5], the IC50 was over 30000 nM. `NS(=O)(=NC(=O)Nc1c2c(nc3c1CCC31CC1)CCC2)c1ccn(C(F)F)n1` (single isomer, unassigned) [Compound 180a, (R) or (S)-1-(difluoromethyl)-N′-((1′,5′,6′,7′-tetrahydro-2′H-spiro[cyclopropane-1,3′-dicyclopenta[b,e]pyridin]-8′-yl)carbamoyl)-1H-pyrazole-3-sulfonimidamide]: the IC50 under setting [4] was 200 to 1000 nM. Turning to `CC1CCc2c1nc1c(c2NC(=O)N=S(N)(=O)c2cc(C(C)(C)O)cs2)CCC1` (stereo not shown) [Compound 141, 4-(2-hydroxypropan-2-yl)-N′-((3-methyl-1,2,3,5,6,7-hexahydrodicyclopenta[b,e]pyridin-8-yl)carbamoyl)thiophene-2-sulfonimidamide], the IC50 under setting [3] fell in the range of 40 to 200 nM.

Turning to `CCc1nc2c(c(NC(=O)N=S(N)(=O)c3cc(C(C)(C)O)cs3)c1C1CC1)CCC2` (single isomer, unassigned) [Compound 654b], the IC50 under setting [1] was 200 to 1000 nM. On to `CC(C)n1cc(Cl)c(S(N)(=O)=NC(=O)Nc2c3c(nc4c2CCC4)CCC3)n1` (single isomer, unassigned) [Compound 694a, (S) or (R)-4-Chloro-N′-((1,2,3,5,6,7-hexahydrodicyclopenta [b,e]pyridin-8-yl)carbamoyl)-1-isopropyl-1H-pyrazole-3-sulfonimidamide], for which the IC50 under setting [5] is over 30000 nM.

For the molecule `CCc1c(C2CC2)nc2c(c1NC(=O)N=S(N)(=O)c1cc(C(C)(C)O)cs1)CCC2` (single isomer, unassigned) [Compound 181a, (S) or (R)-N′-((2-cyclopropyl-3-ethyl-6,7-dihydro-5H-cyclopenta[b]pyridin-4-yl)carbamoyl)-4-(2-hydroxypropan-2-yl)thiophene-2-sulfonimidamide], under setting [1], the IC50 is 1000 to 5000 nM. As to `CC1Cc2nc3c(c(NC(=O)N=S(N)(=O)c4cnc(C(C)(C)O)s4)c2C1)CCC3` (stereo not shown) [Compound 152, 2-(2-hydroxypropan-2-yl)-N′-((2-methyl-1,2,3,5,6,7-hexahydrodicyclopenta[b,e]pyridin-8-yl)carbamoyl)thiazole-5-sulfonimidamide], the IC50 under setting [4] is 200 to 1000 nM.

Turning to `Cc1c(C2CC2)nc2c(c1NC(=O)N=S(N)(=O)c1nc(C(C)(C)O)cs1)CCC2` (single isomer, unassigned) [Compound 626b, (R) or (S)-N′-((2-cyclopropyl-3-methyl-6,7-dihydro-5H-cyclopenta[b]pyridin-4-yl)carbamoyl)-4-(2-hydroxypropan-2-yl)thiazole-2-sulfonimidamide], the concentration for half-maximal inhibition (IC50) under setting [1] is 40 to 200 nM. As to `Cc1c(C(F)(F)F)nc2c(c1NC(=O)N=S(N)(=O)c1nn(C(F)F)cc1F)CCC2` (stereo not shown) [Compound 717], the half-inhibitory concentration (IC50) under setting [2] lay within 200 to 1000 nM.
